Test results as given in US11525063B2, “Fluorescent oxygen sensing ink” (The Board of Trustees of Western Michigan University, priority 2018, dated 2022).
Read-outs that look alike come from different tables or passages of the source.

Tests used:
[1] = system: L-929 mouse fibroblast cells
Method: (§1) All samples were ≤0.5 mm thick and prepared as 8 mm-diameter discs (surface area of 0.50 cm^2). […] An aliquot was counted using trypan blue, and then cells were re-suspended in complete growth medium at a density of 1×10^5 cells/ml. […] After 24 h, the culture medium was removed and replaced with 100 μl of extractant. Some wells received sodium dodecyl sulfate (0 to 400 μM in EMEM; positive controls), low-density polyethylene extract (1.25 cm^2 LDPE/ml EMEM; negative control), or complete growth medium alone. Cells were then cultured for an additional 24 h. Images (mag. of 100× and 200×) of cell cultures were recorded by photo microscopy using a Olympus CK40 inverted microscope and Insight2 SPOT camera (Diagnostic Imaging) and the number of attached and dead cells were manually counted at a later time using ImageJ (NIH). […] Subsequently, cells in culture plates were washed once with Hank's Balanced Salt Solution and metabolic activity was measured by incubating cells with 100 μl of WST-1 cell proliferation reagent (Roche Diagnostics) for up to 4 h at 37° C. To determine cytotoxicity, absorbance of the medium in wells was measured at 450 nm after 2 and 4 h using a microplate reader (PHERAstar) and was corrected using absorbance measurements at 630 nm and using blanks. To check for mycoplasma contamination of the cultures, medium was saved and tested using the luminescent MycoAlert Plus mycoplasma detection kit (Lonza).
Absorbance is proportional to the amount of formazan product generated by the metabolic activity of cells. Thus, lower absorbance values correlate with increased cytotoxicity.
An aliquot was counted using trypan blue, and then cells were re-suspended in complete growth medium at a density of 1×10^5 cells/ml. […] After 24 h, the culture medium was removed and replaced with 100 μl of extractant. Some wells received sodium dodecyl sulfate (SDS; 0 to 400 μM in EMEM; positive controls), low-density polyethylene extract (1.25 cm^2 LDPE/ml EMEM; negative control) or complete growth medium alone. Cells were then cultured for an additional 24 h. Subsequently, cells in culture plates were washed once with HBSS and metabolic activity was measured by incubating cells with 100 μl of WST-1 cell proliferation reagent (Roche Diagnostics) for up to 4 h at 37° C.
To determine cytotoxicity, absorbance of the medium in wells was measured at 450 nm after 2 and/or 4 h using a microplate reader (PHERAstar) and was corrected using absorbance measurements at 630 nm and using blanks. Absorbance levels are proportional to the metabolic activity of cells and therefore inversely related to cytotoxicity. To check for mycoplasma contamination of the cultures, medium was saved and tested using the luminescent MycoAlert Plus mycoplasma detection kit (Lonza). Statistical significance was determined using analysis of variance and Tukey-Kramer post-test.

[2] = Effect of sterilization process (H2O2 vapor treatment) on emission peak; format: physicochemical
Method: The fluorescent properties of two materials being encapsulated in both poly-styrene and PDMS (polydimethylsiloxane) polymer binder materials were measured to determine the suitability of the materials in an oxygen sensing system. […] Then 20 μL of mixed solution was cast onto filter paper to form a patch with a diameter of 8 mm. The patch was left in the nitrogen chamber for drying for 24-hours before testing. The PDMS encapsulated sensing patches were fabricated by firstly depositing dye solution onto the filter paper. PDMS was then added to the filter paper after the removal of the solvent. The same amount of dye was used for all samples. The fluorescence spectrum was measured using a UV spectrophotometer. A zero oxygen solution was prepared by nitrogen bubbling a 0.15 mol/L Na2SO3 solution for 30 minutes.

[3] = system: L-929 mouse fibroblast cells; settings: 150 μM SDS in EMEM, 24 h
Method: as §1, with “To check for mycoplasma contamination of the cultures, medium was saved and tested using the luminescent MycoAlert Plus mycoplasma detection kit (Lonza).” left out

| Structure (SMILES) | cytotoxicity of extract (conclusion in words) ([1]; cells treated 24 h with extract of Sterrad-sterilized sample) | cytotoxicity of extract (conclusion in words) ([1]; cells treated 24 h with extract of Sterrad-sterilized sample, listed as ruthenium alone on paper) | Mean absorbance (corrected, 450 nm) ([1]; cells treated 24 h with extract of Sterrad-sterilized sample, lower absorbance = more cytotoxic) | metabolic activity relative to cells cultured in EMEM alone ([1]; cells treated 24 h with extract, below 70% considered cytotoxic) [%] | stability to H2O2 vapor treatment [2] | Emission peak After Sterilization ([2]; after H2O2 vapor treatment) | Emission peak Before Sterilization ([2]; before H2O2 vapor treatment) | Mean absorption reading ([1]; 300 μM SDS in EMEM, 24 h) | Concentrations of SDS that were cytotoxic ([1]; mouse) | Morphology score [3] |
| --- | --- | --- | --- | --- | --- | --- | --- | --- | --- | --- |
| [Cl-].[Cl-].[Ru+2].c1ccc(-c2ccnc3c2ccc2c(-c4ccccc4)ccnc23)cc1.c1ccc(-c2ccnc3c2ccc2c(-c4ccccc4)ccnc23)cc1.c1ccc(-c2ccnc3c2ccc2c(-c4ccccc4)ccnc23)cc1 [Ru(dpp)3Cl2, Tris(4,7-diphenyl-1,10-phenanthroline) ruthenium II dichloride] | considerable cytotoxicity | cytotoxic | 0.318 | 38.4 | more vulnerable | No emission peak detected | Emission peak detected | – | – | – |
| CCCCCCCCCCCCOS(=O)(=O)[O-].[Na+] [SDS, sodium dodecyl sulfate, reference compound] | – | – | – | – | – | – | – | 0 | above 200 μM | 2 |
